Results on 20 compounds are retold here after patent publication US11066369B2, “N-(pyridin-2-yl)pyridine-sulfonamide derivatives and their use in the treatment of disease” (Novartis AG, priority 2016, dated 2021).

pEC50: −log10 of the molar value. Structures can show the parent of a compound that is named as a salt. Where two headings read alike, the source gives them in different places.

For one experiment, the target named is T1, delF508-CFTR (Homo sapiens, UniProt P13569, DEL508-508).
T1 construct: functional activity of the CFTR channel (Chloride ion transport) in patient derived primary human bronchial epithelial cells; host or cells: patient-derived primary human bronchial epithelial cells (delF508-CFTR)
T1 sequence (P13569 with tags, fused parts or gaps DEL508-508): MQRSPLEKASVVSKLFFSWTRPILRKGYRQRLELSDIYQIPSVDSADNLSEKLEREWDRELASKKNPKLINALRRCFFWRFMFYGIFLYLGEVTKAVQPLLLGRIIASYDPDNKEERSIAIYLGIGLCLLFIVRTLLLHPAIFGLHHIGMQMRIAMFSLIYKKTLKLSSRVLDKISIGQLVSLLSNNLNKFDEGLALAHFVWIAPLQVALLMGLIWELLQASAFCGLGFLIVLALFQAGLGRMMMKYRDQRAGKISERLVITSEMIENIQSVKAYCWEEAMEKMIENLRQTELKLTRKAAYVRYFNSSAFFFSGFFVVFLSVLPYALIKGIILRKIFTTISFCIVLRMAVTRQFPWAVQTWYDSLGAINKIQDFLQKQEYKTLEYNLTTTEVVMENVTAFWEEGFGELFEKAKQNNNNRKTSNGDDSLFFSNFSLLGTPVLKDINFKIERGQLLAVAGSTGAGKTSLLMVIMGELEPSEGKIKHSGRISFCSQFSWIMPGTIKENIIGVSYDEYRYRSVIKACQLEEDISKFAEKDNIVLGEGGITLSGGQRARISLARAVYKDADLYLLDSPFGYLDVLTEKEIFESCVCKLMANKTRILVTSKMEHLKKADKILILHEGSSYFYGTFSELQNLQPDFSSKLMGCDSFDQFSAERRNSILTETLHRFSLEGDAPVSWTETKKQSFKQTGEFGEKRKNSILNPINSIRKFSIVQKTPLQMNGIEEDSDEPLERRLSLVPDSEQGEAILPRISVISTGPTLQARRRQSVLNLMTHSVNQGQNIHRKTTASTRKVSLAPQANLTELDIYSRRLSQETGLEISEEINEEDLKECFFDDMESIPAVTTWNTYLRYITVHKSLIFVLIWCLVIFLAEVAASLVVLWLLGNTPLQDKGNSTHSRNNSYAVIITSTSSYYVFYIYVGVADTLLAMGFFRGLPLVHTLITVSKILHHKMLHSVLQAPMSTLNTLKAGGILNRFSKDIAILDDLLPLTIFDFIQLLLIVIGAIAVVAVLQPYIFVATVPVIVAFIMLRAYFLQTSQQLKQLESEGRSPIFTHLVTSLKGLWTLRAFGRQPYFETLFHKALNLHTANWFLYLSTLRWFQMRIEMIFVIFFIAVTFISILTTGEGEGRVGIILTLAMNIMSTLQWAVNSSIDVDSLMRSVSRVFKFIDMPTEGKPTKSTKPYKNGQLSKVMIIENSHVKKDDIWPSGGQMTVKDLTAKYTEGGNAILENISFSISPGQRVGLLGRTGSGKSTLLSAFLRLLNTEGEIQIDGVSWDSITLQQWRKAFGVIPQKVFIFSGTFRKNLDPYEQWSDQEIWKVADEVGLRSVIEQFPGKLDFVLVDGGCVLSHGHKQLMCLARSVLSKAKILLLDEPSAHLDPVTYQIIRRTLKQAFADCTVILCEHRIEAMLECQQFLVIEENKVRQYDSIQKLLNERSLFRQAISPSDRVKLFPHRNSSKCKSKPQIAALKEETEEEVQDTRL
Briefly: Measurement of delF508-CFTR functional activity in primary human bronchial epithelial cells (HBECs) using Multi-Transepithelial Clamp Circuit (MTECC-24) assay. Type of experiment: cell-based. The note with it: primary CF HBECs; for MTECC24 CFHBEC- Amax %: test compound added 24h before assay plus potentiator, relative to reference combination (2 μM corrector + 0.5 μM potentiator); for pEC50: test compound added 24h before assay, in the presence of potentiator, mean of at least two replicates, read-out: MTECC24 CFHBEC- EC50. In outline:
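Compound tested as 10-point, 1-in-3 concentration response (0.1% or 0.2% DMSO), 24 h basolateral pre-incubation, then re-added to both sides. MTECC-24 measured Ieq in ALI-differentiated primary delF508 bronchial cells after amiloride, forskolin activation, potentiator and INH-172 block; data normalized to DMSO baseline, EC50 fitted.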

For experiment [1], the target named is T2, horseradish peroxidase (HRP) tagged delF508-CFTR (Homo sapiens, UniProt P13569, DEL508-508).
T2 construct: expressed in transfected cells
T2 sequence (P13569 with tags, fused parts or gaps DEL508-508): as above
The experiment is described as follows: Measurement of delF508-CFTR-HRP surface expression in CFBE41o- cells.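 On DelF508-CFTR-HRP Amax %: percent efficacy relative to reference corrector lumacaftor.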 Type of experiment: cell-based. The note with it: for Emax: read-out: DelF508-CFTR-HRP Amax %. An outline of the steps: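 Surface-trafficked delF508-CFTR detected via extracellular HRP tag, read as luminescence from a membrane-impermeant substrate in CFBE41o- cells. Cells pre-induced 48h with 500 ng/mL doxycycline, then exposed 24h at 37° C to a 10-point, 3-fold dilution series from 10 μM (DMSO ≤0.5%). Triplicate dose-responses fitted logistically for EC50 after per-plate normalization; fold change versus reference compound.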

Setting [2] is: delF508-CFTR-HRP surface expression, CFBE41o- cells.
Where [3] appears, read: delF508-CFTR-HRP surface expression, CFBE41o- cells, read-out: DelF508-CFTR-HRP EC50.

The pEC50 is −log10 of the EC50, conventionally taken in molar units. Turning to `Cc1c(F)cccc1-c1nc(NS(=O)(=O)c2cccc(N3CCC[C@H](C(=O)O)C3)n2)ccc1C(F)(F)F` [Example 360, (3S)-1-(6-{[6-(3-fluoro-2-methylphenyl)-5-(trifluoromethyl)pyridin-2-yl]sulfamoyl}pyridin-2-yl)piperidine-3-carboxylic Acid], at delF508-CFTR, the “MTECC24 CFHBEC- Amax %” value stood at 57.5% and the pEC50 is 7.32. For the same compound, the Emax in experiment [1] (setting [2]) amounted to 546%. In addition, in experiment [1] (setting [3]), the pEC50 was 5.68.
For `Cc1ccccc1-c1nc(NS(=O)(=O)c2cccc(OC3CCC(C(=O)O)CC3)n2)ccc1C(F)(F)F` (centres unmarked) [Example 342, 4-((6-(N-(6-(o-tolyl)-5-(trifluoromethyl)pyridin-2-yl)sulfamoyl)pyridin-2-yl)oxy)cyclohexanecarboxylic Acid], in that order: 85.8%, 7.10, 266% and 5.72.
As to `Cc1ccccc1-c1nc(NS(=O)(=O)c2cccc(N[C@H]3C[C@@H](O)C3)n2)ccc1C(F)(F)F` [Example 283, N-[6-(2-methylphenyl)-5-(trifluoromethyl)pyridin-2-yl]-6-{[(1s,3s)-3-hydroxycyclobutyl]amino}pyridine-2-sulfonamide], the “MTECC24 CFHBEC- Amax %” value at delF508-CFTR came out at 84.0%. In addition, the pEC50 was 9.10 at delF508-CFTR and 5.80 in experiment [1] (setting [3]).
`CC(C)(C)OC(=O)N1CCN(c2cccc(S(=O)(=O)Nc3ccc(C(F)(F)F)c(-c4ccccc4C4CC4)n3)n2)CC1` [Example 147, tert-butyl 4-(6-(N-(6-(2-cyclopropylphenyl)-5-(trifluoromethyl)pyridin-2-yl)sulfamoyl)pyridin-2-yl)piperazine-1-carboxylate]: on delF508-CFTR, the “MTECC24 CFHBEC- Amax %” value was found to be 92.8% and the pEC50 was 8.38. Further, the Emax in experiment [1] (setting [2]) came to 482%. Further, the pEC50 in experiment [1] (setting [3]) is 6.43.
For `Cc1ccccc1-c1nc(NS(=O)(=O)c2cccc(N3CCN(C)CC3)n2)ccc1C(F)(F)F` [Example 189, 6-(4-methylpiperazin-1-yl)-N-(6-(o-tolyl)-5-(trifluoromethyl)pyridin-2-yl)pyridine-2-sulfonamide], in that order: 79.0%, 7.50, 414% and 5.55.
Regarding `Cc1ccccc1-c1nc(NS(=O)(=O)c2cccc(N3CC(O)(C(F)(F)F)C3)n2)ccc1C(F)(F)F` [Example 204, 6-(3-hydroxy-3-(trifluoromethyl)azetidin-1-yl)-N-(6-(o-tolyl)-5-(trifluoromethyl)pyridin-2-yl)pyridine-2-sulfonamide], at delF508-CFTR, the “MTECC24 CFHBEC- Amax %” value was 90.6% and the pEC50 is 8.24. The Emax in experiment [1] (setting [2]) came out at 943%. Moreover, in experiment [1] (setting [3]), the pEC50 was 5.76.
Regarding `Cc1cccc(C)c1-c1nc(NS(=O)(=O)c2cccc(N)n2)ccc1C(F)(F)F` [Example 2, 6-amino-N-(6-(2,6-dimethylphenyl)-5-(trifluoromethyl)pyridin-2-yl)pyridine-2-sulfonamide], on delF508-CFTR, the “MTECC24 CFHBEC- Amax %” value was 75.5%. For the same compound, the values for the pEC50 (at delF508-CFTR; in experiment [1] (setting [3])) were 8.10 and 6.01, respectively. In addition, the Emax in experiment [1] (setting [2]) came to 724%.
As for `Cc1ccccc1-c1nc(NS(=O)(=O)c2cccc(N3CC4CCC(C3)N4)n2)ccc1C(F)(F)F` [Example 181, 6-(3,8-diazabicyclo[3.2.1]octan-3-yl)-N-(6-(o-tolyl)-5-(trifluoromethyl)pyridin-2-yl)pyridine-2-sulfonamide Hydrochloride], on delF508-CFTR, the “MTECC24 CFHBEC- Amax %” value was 101.5% and the pEC50 was 7.40. This compound also gave a pEC50 in experiment [1] of 5.57. Besides, the Emax in experiment [1] (CFBE41o-) came to 454%.
In the case of `Cc1cc(F)ccc1-c1nc(NS(=O)(=O)c2cccc(N3CC(O)C3)n2)ccc1C(F)(F)F` [Example 218, N-(6-(4-fluoro-2-methylphenyl)-5-(trifluoromethyl)pyridin-2-yl)-6-(3-hydroxyazetidin-1-yl)pyridine-2-sulfonamide], on delF508-CFTR, the “MTECC24 CFHBEC- Amax %” value was 59.5% and the pEC50 was 7.64. Also, the Emax in experiment [1] (setting [2]) is 465%. For the same compound, the pEC50 in experiment [1] (setting [3]) is 5.76.
In the same order, the values of `Cc1ccc(F)cc1-c1nc(NS(=O)(=O)c2cccc(N[C@@H]3COC[C@H]3O)n2)ccc1Cl` [Example 127, N-(5-chloro-6-(5-fluoro-2-methylphenyl)pyridin-2-yl)-6-(((3R,4S)-4-hydroxytetrahydrofuran-3-yl)amino)pyridine-2-sulfonamide] are 45.4%, 7.80, 382% and 5.63.
As for `Cc1ccccc1-c1nc(NS(=O)(=O)c2cccc(N3CCN(CCO)CC3)n2)ccc1C(F)(F)F` [Example 182, 6-(4-(2-hydroxyethyl)piperazin-1-yl)-N-(6-(o-tolyl)-5-(trifluoromethyl)pyridin-2-yl)pyridine-2-sulfonamide Hydrochloride], the “MTECC24 CFHBEC- Amax %” value at delF508-CFTR is 89.6%. Also, the pEC50 on delF508-CFTR was 7.06; in experiment [1] (setting [3]), 5.49. The Emax in experiment [1] (setting [2]) stood at 485%.
As for `O=C(O)[C@@H]1CCCN(c2cccc(S(=O)(=O)Nc3ccc(C(F)(F)F)c(-c4ccccc4C4CCC4)n3)n2)C1` [Example 366, (R)-1-(6-(N-(6-(2-cyclobutylphenyl)-5-(trifluoromethyl)pyridin-2-yl)sulfamoyl)pyridin-2-yl)piperidine-3-carboxylic Acid], the “MTECC24 CFHBEC- Amax %” value at delF508-CFTR was found to be 66.9%. Besides, the figures for the pEC50 (on delF508-CFTR; in experiment [1] (setting [3])) were 9.10 and 5.87, respectively.
For `Nc1cccc(S(=O)(=O)Nc2ccc(C(F)(F)F)c(-c3ccc(F)cc3Cl)n2)n1` [Example 41, 6-amino-N-(6-(2-chloro-4-fluorophenyl)-5-(trifluoromethyl)pyridin-2-yl)pyridine-2-sulfonamide], on delF508-CFTR, the “MTECC24 CFHBEC- Amax %” value stood at 88.8% and the pEC50 is 7.86. Also, the Emax in experiment [1] (setting [2]) turned out to be 368%. Also, the pEC50 in experiment [1] (setting [3]) is 5.63.
For the compound `O=S(=O)(Nc1ccc(C(F)(F)F)c(-c2cccc(F)c2Cl)n1)c1cccc(N2CC(O)C2)n1` [Example 230, N-(6-(2-chloro-3-fluorophenyl)-5-(trifluoromethyl)pyridin-2-yl)-6-(3-hydroxyazetidin-1-yl)pyridine-2-sulfonamide], on delF508-CFTR, the “MTECC24 CFHBEC- Amax %” value amounted to 60.6% and the pEC50 was 7.68. For the same compound, in experiment [1] (setting [2]), the Emax was determined as 513%. Also, the pEC50 in experiment [1] (setting [3]) was 5.53.
Consider `Cc1ccc(F)cc1-c1nc(NS(=O)(=O)c2ccnc(N3CCNCC3)c2)ccc1C(F)(F)F` [Example 326, N-(6-(5-fluoro-2-methylphenyl)-5-(trifluoromethyl)pyridin-2-yl)-2-(piperazin-1-yl)pyridine-4-sulfonamide], for which, on delF508-CFTR, the “MTECC24 CFHBEC- Amax %” value is on record as 50.5% and the pEC50 was 6.69. Further, in experiment [1] (setting [2]), the Emax came out at 103%. In experiment [1] (setting [3]), the pEC50 was 5.42.
For `CC1(C(=O)O)CCN(c2cccc(S(=O)(=O)Nc3ccc(C(F)(F)F)c(-c4ccccc4C4CC4)n3)n2)CC1` [Example 237, 1-(6-(N-(6-(2-cyclopropylphenyl)-5-(trifluoromethyl)pyridin-2-yl)sulfamoyl)pyridin-2-yl)-4-methylpiperidine-4-carboxylic Acid], in that order: 55.4%, 8.37, 544% and 5.84.
For `Cc1ccc(F)cc1-c1nc(NS(=O)(=O)c2ccnc(N3CC(O)C3)c2)ccc1Cl` [Example 322, N-(5-chloro-6-(5-fluoro-2-methylphenyl)pyridin-2-yl)-2-(3-hydroxyazetidin-1-yl)pyridine-4-sulfonamide], the “MTECC24 CFHBEC- Amax %” value at delF508-CFTR is 52.6%. For the same compound, the pEC50 at delF508-CFTR is 6.65; in experiment [1] (setting [3]), 5.58. In experiment [1] (setting [2]), the Emax amounted to 310%.
In the same order, the values of `O=S(=O)(Nc1ccc(C(F)(F)F)c(-c2ccccc2C(F)(F)F)n1)c1ccnc(N2CC(O)C2)c1` [Example 325, 2-(3-hydroxyazetidin-1-yl)-N-(5-(trifluoromethyl)-6-(2-(trifluoromethyl)phenyl)pyridin-2-yl)pyridine-4-sulfonamide] are 60.1%, 7.81, 5.62 and 257%.
In the same order, the values of `CO[C@@H]1CNCC[C@H]1Nc1cccc(S(=O)(=O)Nc2ccc(C(F)(F)F)c(-c3ccccc3C)n2)n1` (racemic) [Example 116, 6-(((3R,4R)-3-methoxypiperidin-4-yl)amino)-N-(6-(o-tolyl)-5-(trifluoromethyl)pyridin-2-yl)pyridine-2-sulfonamide Hydrochloride] are 60.8%, 6.97, 5.50 and 370%.
On to `Cc1c(F)cccc1-c1nc(NS(=O)(=O)c2cccc(N3CCN(C4CC4)CC3)n2)ccc1C(F)(F)F` [Example 144, 6-(4-cyclopropylpiperazin-1-yl)-N-(6-(3-fluoro-2-methylphenyl)-5-(trifluoromethyl)pyridin-2-yl)pyridine-2-sulfonamide], for which, at delF508-CFTR, the “MTECC24 CFHBEC- Amax %” value stood at 80.5% and the pEC50 is 8.70. Further, in experiment [1] (setting [3]), the pEC50 was 5.73.
